In article PMC12435270 (Proceedings of the National Academy of Sciences of the …, 2025):
Where two headings read alike, the source gives them in different places.

What was measured:
[1] = target: T1, human creatine transporter (hCRT, SLC6A8) (Homo sapiens, UniProt P48029); assay: cryo-EM structure; format: binding
T1 sequence (P48029 1-635): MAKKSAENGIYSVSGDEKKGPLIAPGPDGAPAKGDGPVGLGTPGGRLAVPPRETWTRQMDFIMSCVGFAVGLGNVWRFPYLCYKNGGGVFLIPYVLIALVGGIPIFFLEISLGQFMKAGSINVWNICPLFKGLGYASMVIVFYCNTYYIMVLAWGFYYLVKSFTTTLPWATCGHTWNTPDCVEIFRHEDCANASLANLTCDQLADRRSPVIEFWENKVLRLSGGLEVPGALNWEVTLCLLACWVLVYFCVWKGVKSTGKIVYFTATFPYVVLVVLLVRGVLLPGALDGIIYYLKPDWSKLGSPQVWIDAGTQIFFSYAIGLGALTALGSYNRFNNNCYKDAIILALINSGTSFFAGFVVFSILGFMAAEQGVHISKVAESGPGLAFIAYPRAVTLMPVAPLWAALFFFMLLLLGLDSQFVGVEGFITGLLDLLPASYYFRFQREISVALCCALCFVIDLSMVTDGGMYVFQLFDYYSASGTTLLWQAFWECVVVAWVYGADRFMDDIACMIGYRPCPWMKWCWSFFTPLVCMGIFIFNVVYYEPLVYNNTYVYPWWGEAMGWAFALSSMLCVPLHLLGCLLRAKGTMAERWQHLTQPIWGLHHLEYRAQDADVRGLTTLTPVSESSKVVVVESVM

[2] = target: T1, human creatine transporter (hCRT, SLC6A8); assay: cryo-EM structure; format: binding; remark: listed apart in the source

SMILES | Kd [1] [µM] | Kd [2] [µM]
CN(CC(=O)O)C(=N)N [creatine] | 3.2 | –
N=C(N)NCCC(=O)O [RGX202] | – | 3.39
